Data set [1] concerns mCRPC patients. As to conditions: 3 months; cited from earlier work.
In data set [2] the test system is mCRPC patients, safety population. The data set can be described thus: Same clinical study: safety (adverse events, laboratory abnormalities, dose reductions). The following applies: human, in vivo. Format: in vivo, human. How it is done: For patients in Arm A, cabazitaxel 25 mg/m^2 was administered intravenously over 1 hour every 3 weeks along with oral prednisone 10 mg given daily. Primary prophylactic granulocyte-colony stimulating factor (G-CSF) was required at each cycle for all patients in the cabazitaxel arm
For patients in Arm B, abiraterone acetate was administered orally at 1000 mg once daily along with oral prednisone 5 mg given twice daily or enzalutamide was administered orally at 160 mg once daily continuously. Abiraterone acetate was administered to patients who had received enzalutamide prior to study entry. Enzalutamide was administered to patients who received prior abiraterone acetate.
Cabazitaxel 25 mg/m^2, was administered intravenously over 1 hour every 3 weeks with oral prednisone 10 mg daily. Premedication included an antihistamine, glucocorticoid (dexamethasone 8 mg or equivalent), and histamine 2 receptor antagonist. Antiemetic prophylaxis was administered at physician's discretion. Primary prophylactic granulocyte-colony stimulating factor was required during each cycle of cabazitaxel. Patients received either abiraterone acetate (1000 mg orally once daily and oral prednisone 5 mg twice daily) or enzalutamide (160 mg orally once daily) continuously. A treatment cycle was 3 weeks in both arms. Abiraterone acetate was given to patients who previously received enzalutamide before study entry. Enzalutamide was given to patients who previously received abiraterone acetate.
Up to a maximum of 2 dose reductions was allowed per patient when necessary due to toxicity and according to the table below:
Efficacy analysis used all randomized patients. Stratified log-rank tests were used to analyze time-to-event data. The primary analysis compared radiographic progression-free survival between the two treatment groups using a stratified log-rank test. Survival curves were generated using Kaplan-Meier estimates. Hazard ratios and associated 95% confidence intervals [CI] were estimated using a stratified Cox proportional hazards model. Stratified Cochran-Mantel-Haenszel chi-square tests were used to analyze categorical data. Descriptive statistics were used to summarize patient characteristics. The safety population (randomized patients who received at least one dose of study treatment) was used for all safety analyses.

Data set [3] has as its system mCRPC patients. The following applies: at 3 months; cited from earlier work.
Data set [4] has as its system patients with mCRPC who progressed during or after docetaxel. As to conditions: every 3 weeks with prednisone 10 mg daily; cabazitaxel 25 mg/m^2, mitoxantrone 12 mg/m^2; cited from earlier work.

Consider three compounds from patent US20210244704A1, “Cabazitaxel in mCRPC Patients Previously Treated with Docetaxel and Who Failed a Prior androgen signaling targeted inhibitor Agent” (SANOFI MATURE IP, priority 2019, published 2021).

Each structure is given as a SMILES string.

For the compound `CC(=O)O[C@H]1CC[C@@]2(C)C(=CC[C@@H]3[C@@H]2CC[C@]2(C)C(c4cccnc4)=CC[C@@H]32)C1` [abiraterone acetate, (3β)-17-(3-pyridinyl) androsta-5,16-dien-3-yl acetate], in the data set with mCRPC patients [1], the “Patients with primary resistance, imaging-based progression at the first visit” value is given as “about 30%”. Besides, the “At least one dose reduction required” value in data set [2] came to 17 patients. In the case of `CNC(=O)c1ccc(N2C(=S)N(c3ccc(C#N)c(C(F)(F)F)c3)C(=O)C2(C)C)cc1F` [enzalutamide, 4-{3-[4-cyano-3-(trifluoromethyl)phenyl]-5,5-dimethyl-4-oxo-2-sulfanylideneimidazolidin-1-yl}-2-fluoro-N-methylbenzamide], the “Patients with imaging-based progression” value with mCRPC patients [3] is listed as “about 25%”. Regarding `O=C1c2c(O)ccc(O)c2C(=O)c2c(NCCNCCO)ccc(NCCNCCO)c21` [mitoxantrone], the “Median overall survival, TROPIC trial” value in data set [4] is 12.7 months.
